According to patent US10265329B2, “Altering steroid metabolism for treatment of steroid-dependent disease” (THE CLEVELAND CLINIC FOUNDATION, priority 2015, dated 2019):
Like-named read-outs stand apart in the source and are kept apart here.

How the values were obtained:
3βHSD = molecular target: T1, 3βHSD (Homo sapiens, UniProt P14060); assay: Conversion of [3H]-DHEA by 3βHSD to AD in prostate cancer cells (HPLC/TLC); format: cell-based; settings: for 3βHSD inhibition activity relative to D4A: LNCaP, [3H]-DHEA to AD, 48 hours
T1 construct: endogenous in cells; host or cells: LNCaP, VCaP
T1 sequence (P14060 2-373 limits assumed): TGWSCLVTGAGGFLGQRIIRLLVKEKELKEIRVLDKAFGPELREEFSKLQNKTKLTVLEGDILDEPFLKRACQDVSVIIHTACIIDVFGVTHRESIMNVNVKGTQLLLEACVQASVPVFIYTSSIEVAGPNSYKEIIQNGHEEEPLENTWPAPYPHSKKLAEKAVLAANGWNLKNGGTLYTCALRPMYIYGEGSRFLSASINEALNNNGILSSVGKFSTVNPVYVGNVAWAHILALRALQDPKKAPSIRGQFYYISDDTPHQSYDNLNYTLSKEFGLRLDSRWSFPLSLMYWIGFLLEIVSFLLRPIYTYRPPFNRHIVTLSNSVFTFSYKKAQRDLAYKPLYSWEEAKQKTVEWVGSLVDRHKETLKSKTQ
Experimental: (§1) Cell Line Metabolism: Cells were seeded and incubated in 12-well plates with 0.2 million cells/well for ˜24 h and then incubated with a mixture of radioactive ([^3H]-labeled) and non-radioactive androgens (final concentration, 100 nM; ˜1,000,000 cpm/well; PerkinElmer, Waltham, Mass.) at 37° C. Aliquots of medium were collected at the indicated times. Collected medium was treated with 1,000 units of β-glucuronidase (Helix pomatia; Sigma-Aldrich) at 65° C. for 2 h, extracted with 860 μL ethyl acetate:isooctane (1:1), and concentrated under nitrogen gas. Xenograft Metabolism: 10^7 LNCaP or VCaP cells were injected subcutaneously with Matrigel into surgically orchiectomized NSG mice that were implanted with 5 mg 90-day sustained-release DHEA pellets (Innovative Research of American, Sarasota, Fla.). Xenografts were harvested when they reached 1000 mm^3, minced, and cultured in DMEM with 10% FBS at 37° C. with mixture of radioactive ([^3H]-labeled) and non-radioactive androgens, or Abi, when they reached 1000 mm^3. Each xenograft was analyzed in triplicate in at least three independent experiments. Aliquots of medium were collected at the indicated times. Collected medium was treated with 1,000 units of β-glucuronidase at 65° C. for 2 h, extracted with 860 μL ethyl acetate:isooctane (1:1), and concentrated under nitrogen gas.
Dried samples were reconstituted in 50% methanol and injected into the HPLC. Steroids and drug metabolites were separated on Kinetex 100×2.1 mm, 2.6 μm particle size C18 reverse-phase column (Phenomenex, Torrance, Calif.) using a methanol/water gradient at 30° C. […] Alternatively, dried samples were applied to plastic-backed silica gel plates and separated by thin-layer chromatography (TLC) using a mobile phase of 3:1 chloroform:ethyl acetate, followed by exposure of the plates to a phosphorimager screen and quantitated with a Storm model 860 phosphorimager (Applied Biosystems, Foster City, Calif.). […] Results are shown as mean±SD. […]

SRD5A = molecular target: T2, SRD5A (Homo sapiens, UniProt P18405); assay: Conversion of [3H]-AD to 5α-reduced androgens in LAPC4 cells; format: cell-based
T2 construct: endogenous in cells; host or cells: LAPC4
T2 sequence (P18405 1-259): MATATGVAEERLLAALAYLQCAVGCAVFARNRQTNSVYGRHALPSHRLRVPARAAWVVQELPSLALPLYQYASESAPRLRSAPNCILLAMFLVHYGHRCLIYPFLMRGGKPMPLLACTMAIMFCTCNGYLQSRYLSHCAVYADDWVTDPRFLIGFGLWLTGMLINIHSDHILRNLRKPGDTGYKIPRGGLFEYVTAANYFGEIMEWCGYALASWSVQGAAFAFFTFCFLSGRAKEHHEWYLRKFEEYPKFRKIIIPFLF
Experimental: as §1
Dried samples were reconstituted in 50% methanol and injected into the HPLC. Steroids and drug metabolites were separated on Kinetex 100×2.1 mm, 2.6 μm particle size C18 reverse-phase column (Phenomenex, Torrance, Calif.) using a methanol/water gradient at 30° C. […] Alternatively, dried samples were applied to plastic-backed silica gel plates and separated by thin-layer chromatography (TLC) using a mobile phase of 3:1 chloroform:ethyl acetate, followed by exposure of the plates to a phosphorimager screen and quantitated with a Storm model 860 phosphorimager (Applied Biosystems, Foster City, Calif.). […] Results are shown as mean±SD.
Collected medium was treated with β-glucuronidase (Helix pomatia; Sigma-Aldrich), extracted with ethyl acetate:isooctane (1:1), and concentrated under nitrogen gas as described. Li et al., 523, 347-351 (2015).
Dried samples were reconstituted in 50% methanol and separated on Kinetex 100×2.1 mm, 2.6 μm particle size C18 reverse-phase column (Phenomenex, Torrance, Calif.) using a methanol/water gradient at 30° C. […] Results are shown as mean±SD.

[1] = Phase II clinical trial NCT01393730: serum Abi metabolites before and after dutasteride; format: in vivo, human; settings: for mean serum concentration, cycle 3: Abi acetate 1000 mg daily plus prednisone alone; for mean serum concentration, cycle 3 / mean serum concentration, cycle 4: 16 patients; for mean serum concentration, cycle 4: after addition of dutasteride 3.5 mg once daily
Experimental: Twelve patients with CRPC undergoing treatment with Abi acetate at Cleveland Clinic were consented under an Institutional Review Board—approved protocol (Case 7813). Blood was collected using Vacutainer Plus serum blood collection tubes (#BD367814, Becton Dickenson, Franklin Lakes, N.J.), between 1 and 16 hours after the 1000 mg daily dose of Abi acetate was administered, and allowed to clot. Tubes were centrifuged at 2500 RPM or 1430×g for 10 minutes. Serum aliquots were frozen at −80° C. until processing. To study the effect of dutasteride on Abi metabolism, serum samples were collected from patients treated on a phase II clinical trial at Dana-Farber Cancer Institute (NCT01393730). Each patient received Abi acetate (1,000 mg daily) plus prednisone (5 mg daily) for 2 cycles (8 weeks) and then additional treatment with dutasteride ([…]) was initiated. Samples were collected on treatment with Abi alone and after addition of dutasteride (start of cycles 3, 4 and 7). Seventeen patients treated at this institution on this clinical trial had blood available from all 3 time points. One patient had Abi concentrations that were under the limit of detection and was later determine to have stopped treatment because of adverse effects and was therefore not included in the analysis. Drug metabolites and internal standard (d4-abiraterone, Toronto Research Chemicals Inc, Ontario Canada) were extracted from 100 μL of patient serum with methyl tert-butyl ether (Sigma Aldrich, St. Louis, Mo.), evaporated under a stream of nitrogen gas and reconstituted in methanol:water (50:50) prior to mass spectrometry analysis. Standard curves were generated using human serum spiked with known concentrations of each metabolite to enable determination of unknown concentrations in patient samples
Samples were analyzed on a ultra high-performance liquid chromatography station (Shimadzu, Kyoto, Japan) with a DGU-20A3R degasser, 2 LC-30AD pumps, a SIL-30AC autosampler, a CTO-10A column oven and a CBM-20A system controller in tandem with a QTRAP 5500 mass spectrometer (AB Sciex, Framingham, Mass.). Drug metabolites were ionized using electrospray ionization in positive ion mode. Multiple reaction monitoring was used to follow mass transitions for Abi, IS, and the metabolites (Table 1). Due to the similarity in structure and mass transitions for the metabolites it was necessary to separate them with chromatography. Separation of drug metabolites was achieved using a mobile phase consisting of LC-MS grade (Fisher) methanol: acetonitrile: water:formic acid (39:26:34:1) at a flow rate of 0.2 ml/min., and C18 analytical column; Zorbax Eclipse plus 150×2.1 mm, 3.5 μm (Agilent, Santa Clara, Calif.).

| SMILES | potency relative to Abi at blocking conversion of [3H]-DHEA by 3βHSD to AD (3βHSD; LNCaP and VCaP cells, TLC and HPLC) | block of conversion from AD to 5α-androstanedione and other 5α-reduced androgens (SRD5A; 10 μM, LAPC4 cells) | mean serum concentration, cycle 3 [1] [nM] | mean serum concentration, cycle 4 [1] [nM] | 3βHSD inhibition activity relative to D4A (3βHSD) | SRD5A inhibition activity relative to D4A (SRD5A) | SRD5A inhibition activity relative to D4A (SRD5A; LAPC4, [3H]-AD to 5α-dione, 24 hours) | decline in mean serum concentration after the addition of dutasteride ([1]; cycle 3 vs. cycle 4) [%] |
| --- | --- | --- | --- | --- | --- | --- | --- | --- |
| C[C@]12CCC(=O)C=C1CC[C@@H]1[C@@H]2CC[C@]2(C)C(c3cccnc3)=CC[C@@H]12 [Compound D4A, 17-(3-Pyridyl)androsta-4,16-dien-3-one] | approximately 10 fold | nearly completely blocks | 9.9 | 18.2 |  |  |  |  |
| C[C@]12CCC(=O)C[C@@H]1CC[C@@H]1[C@@H]2CC[C@]2(C)C(c3cccnc3)=CC[C@@H]12 [Compound 5α-Abi, 17-(3-pyridyl)-5α-androsta-16-ene-3-one] |  |  | 25.8 | 2.9 | attenuation or loss | lose SRD5A inhibition activity |  |  |
| C[C@]12CC[C@@H](O)C[C@@H]1CC[C@@H]1[C@@H]2CC[C@]2(C)C(c3cccnc3)=CC[C@@H]12 [Compound 3α-OH-5α-Abi, 17-(3-pyridyl)-5α-androsta-16-ene-3α-ol] |  |  |  |  | attenuation or loss |  | lose SRD5A inhibition activity | 92 |
